Data as given in PMC9601927 (Foods, 2022).
Entries after “also recorded” stand apart in the source; their conditions may differ.

Tests used:
Caco-2 cells = type: cell-based; details: 2.3 × 10^−4 mg/mL ANC, 48 h
Experimental: Due to cell membrane damage, the intracellular LDH was released into the culture medium. The LDH level was used as an indicator of irreversible cell death. The method used here was based on the spectrophotometric determination at 490 nm of NADH disappearance.
Upon exposure to different concentrations of ANC, FA-g-CS, or their combinations, the culture medium was aspirated and centrifuged at 400× g for 5 min in tubes with a porous matrix to acquire a cell-free supernatant. A measure of 120 microliters of media was mixed with 60 μL of reagent in a 96-well plate, and the absorbance was recorded with PerkinElmer EnVision. The cytotoxicity of these substances was reflected using the following Equation (2):(2) LDH activity(mU/mL)=ODsample−ODblank/ODstandard−ODblank of standard×1000 mU/mL where ODsample, ODblank, ODstandard, and ODblank represent the measurements of the sample, the blank, the standard, and the blank of standard, respectively.

GLUT2 [1] = experiment: Western blot of GLUT2 expression in Caco-2 cells after siRNA transfection and incubation; type: cell-based
Experimental: Firstly, the cells were washed twice with 1 mL of cold PBS and then lysed in 100 μL of ice-cold RIPA lysis buffer. Western blot analysis was performed following the previous method with minor modifications. Briefly, total protein samples were resolved by SDS-PAGE (8%, 10%, or 12%) and transferred to PVDF membranes blocked with 5% nonfat milk powder in TBST; these were then incubated with 8 μg of primary antibody at a dilution of 1:1000/500 (v/v) overnight at 4 °C. Detection was performed with 10 mL of ECL and oxidizing reagent and equal amounts of HRP-conjugated anti-mouse at a 1:5000 (v/v) dilution rate. To further illustrate the effect of FA-g-CS on the transmembrane transport of ANC, the Caco-2 cells were transfected with siRNA targeted to sGLT1 and GLUT2 (the optimal interference fragments screened by previous tests) and then incubated with FA-g-CS, ANC, or their combinations. Finally, the expressions of sGLT1 and GLUT2 were detected using a Western blot assay.

GLUT2 [2] = experiment: Immunofluorescence staining of GLUT2 in Caco-2 cells; type: cell-based; details: ANC 2.3 × 10^−4 mg/mL or FA-g-CS 9 × 10^−5 mg/mL, 48 h
Experimental: Immunofluorescence staining was carried out to further validate the effect of FA-g-CS/ANC on the expression of sGLT1 and GLUT2. In short, Caco-2 cells were transfected with NC siRNA (negative control), GLUT2-siRNA-2, and sGLT1-siRNA-3; then, they were seeded onto a 4-well slide and chamber (Watson, Kobe, Japan). Subsequently, cells were incubated with 0.09 µg/mL FA-g-CS, 0.23 µg/mL ANC, or their combination at 37 °C for 48 h. Then, they were fixed with 4% paraformaldehyde for 10 min and soaked with 0.5% Triton X-100 in PBS for 15 min. In this study, goat serum was used to avoid nonspecific binding at room temperature. After 30 min of treatments, the cells were incubated with the primary antibody ([…], Santa Cruz Biotechnology, with 1:100 dilutions) at 4 °C overnight, followed by incubation with the secondary antibody (goat anti-mouse IgG1-HRP, Santa Cruz Biotechnology, Shanghai, China, with 1:100 dilutions) for 1 h at 20–37 °C. Nuclear staining was performed with DAPI, and the images were captured with a fluorescence microscope (BX53, Olympus, Tokyo, Japan).

[3] = ANC transmembrane transport across Caco-2 cell monolayer (Transwell, HPLC); type: in vitro ADME; details: human, Caco-2
Experimental: (§1) In this work, we utilized and slightly modified a procedure from Zou et al. to perform ANC transport studies. Firstly, ANC commercial powder was pre-dissolved in ultra-pure water and phosphate-buffered solution (PBS, pH7.4) was used for FA-g-CS dissolving. Then, pre-warmed phosphate-buffered saline (PBS) was used to wash and equilibrate the Transwell. Subsequently, the transport buffer containing ANC was added to the basolateral (1.5 mL) or the apical (0.5 mL) side of the inserts, while the corresponding volume of transport buffer was added to the receiving container. Samples measuring 50 uL were taken after 1, 2, 3, and 4 h incubation, and the same amount of pre-warmed PBS was replenished immediately. The samples were treated with HCl and frozen until HPLC analysis. The ANC-absorption-enhancing studies with FA-g-CS across Caco-2 cells were conducted using a transport buffer containing FA-g-CS+ANC instead of ANC alone.
(§2) Transport efficiency (A→B (%)) was calculated according to the following formula: (concentrations of the compound at basolateral side overtime)/(concentrations of the compound at the apical side at zero hours) × 100. The apparent permeability coefficient (Papp) was defined as follows: Papp = (dQ/dt)(1/[AC0]); here, A represents the surface area of the Transwell, C0 represents the compound concentration added in the apical side, and the transport rate of the compound over time is denoted by dQ/dt.

Caco-2 cell monolayer = experiment: as above; type: in vitro ADME; details: for Transport Efficiency A→B (%) with FA-g-CS Co-Treatment / Transport Efficiency A→B (%) without FA-g-CS: 4 h; for Transport Efficiency A→B (%) with FA-g-CS Co-Treatment: with 5 × 10^−5 mg/mL FA-g-CS; for Concentrations of ANC at the Basolateral Side: apical ANC 0.05 ×10^−3 mg/mL, in presence of 0.05 × 10^−3 mg/mL FA-g-CS
Experimental: as §1, §2

## OC[C@H]1O[C@@H](Oc2cc3c(O)cc(O)cc3[o+]c2-c2ccc(O)c(O)c2)[C@H](O)[C@@H](O)[C@@H]1O [ANC, Cyanidin-3-glucoside]
Caco-2 cells
  cell cytotoxicity (LDH assay): negligible increase; also recorded: not toxic
GLUT2 [1]; cells treated with nonrelated and scrambled siRNA
  expression of GLUT2 compared with the blank: significantly elevated
GLUT2 [1]; cells treated with siRNA transfection
  expression level of GLUT2 compared with the blank control: significantly increased
GLUT2 [1]; siRNA-transfected Caco-2 cells incubated with compounds (abstract)
  increased GLUT2 expression: < 60%
GLUT2 [2]
  protein level of GLUT2 (immunofluorescence) compared with the control cells: increased
[3]; ANC 0.05 ×10^−3 mg/mL, 4 h
  Papp A→B at 4 h, 0.05 ×10^−3 mg/mL: 0.491 ± 0.058 ×10⁻⁶ cm/s
  Papp B→A at 4 h, 0.05 ×10^−3 mg/mL: 0.378 ± 0.048 ×10⁻⁶ cm/s
[3]; ANC 0.05 ×10^−3 mg/mL, 4 h, read-out: Papp (B→A)/ Papp (A→B)
  efflux ratio at 4 h, 0.05 ×10^−3 mg/mL: 0.77
[3]; ANC 0.10 ×10^−3 mg/mL, 4 h
  Papp A→B at 4 h, 0.1 ×10^−3 mg/mL: 0.961 ± 0.048 ×10⁻⁶ cm/s
  Papp B→A at 4 h, 0.1 ×10^−3 mg/mL: 0.719 ± 0.098 ×10⁻⁶ cm/s
[3]; ANC 0.10 ×10^−3 mg/mL, 4 h, read-out: Papp (B→A)/ Papp (A→B)
  efflux ratio at 4 h, 0.1 ×10^−3 mg/mL: 0.75
[3]; ANC 0.15 ×10^−3 mg/mL, 4 h
  Papp A→B at 4 h, 0.15 ×10^−3 mg/mL: 1.5 ± 0.523 ×10⁻⁶ cm/s
  Papp B→A at 4 h, 0.15 ×10^−3 mg/mL: 1.94 ± 0.908 ×10⁻⁶ cm/s
[3]; ANC 0.15 ×10^−3 mg/mL, 4 h, read-out: Papp (B→A)/ Papp (A→B)
  efflux ratio at 4 h, 0.15 ×10^−3 mg/mL: 1.29
[3]; ANC 0.20 ×10^−3 mg/mL, 4 h
  Papp A→B at 4 h, 0.2 ×10^−3 mg/mL: 1.12 ± 0.108 ×10⁻⁶ cm/s
  Papp B→A at 4 h, 0.2 ×10^−3 mg/mL: 1.48 ± 0.048 ×10⁻⁶ cm/s
[3]; ANC 0.20 ×10^−3 mg/mL, 4 h, read-out: Papp (B→A)/ Papp (A→B)
  efflux ratio at 4 h, 0.2 ×10^−3 mg/mL: 1.32
[3]; ANC alone, overall statement
  Papp at 4 h: < 1 ×10⁻⁶ cm/s
Caco-2 cell monolayer; ANC 0.05 ×10^−3 mg/mL
  Transport Efficiency A→B (%) with FA-g-CS Co-Treatment: 1%
  Transport Efficiency A→B (%) without FA-g-CS: 0.81%
Caco-2 cell monolayer; ANC 0.10 ×10^−3 mg/mL
  Transport Efficiency A→B (%) with FA-g-CS Co-Treatment: 2.1%
  Transport Efficiency A→B (%) without FA-g-CS: 1.15%
Caco-2 cell monolayer; ANC 0.15 ×10^−3 mg/mL
  Transport Efficiency A→B (%) with FA-g-CS Co-Treatment: 2.3%
  Transport Efficiency A→B (%) without FA-g-CS: 1.18%
Caco-2 cell monolayer; ANC 0.20 ×10^−3 mg/mL
  Transport Efficiency A→B (%) with FA-g-CS Co-Treatment: 1.65%
  Transport Efficiency A→B (%) without FA-g-CS: 0.96%
Caco-2 cell monolayer; 1 h
  Concentrations of ANC at the Basolateral Side: 0.0003 ± 0.00001 b ×10^−3 mg/mL
Caco-2 cell monolayer; 2 h
  Concentrations of ANC at the Basolateral Side: 0.0004 ± 0.00001 c ×10^−3 mg/mL
Caco-2 cell monolayer; 3 h
  Concentrations of ANC at the Basolateral Side: 0.0004 ± 0.00001 c ×10^−3 mg/mL
